These results are taken from patent publication US11685739B2, “High penetration drugs and their compositions thereof for treatment of Parkinson diseases” (TECHFIELDS PHARMA CO., LTD, priority 2013, dated 2023).

For data set [1], the system named is motor function deficits induced by 6-OHDA in Parkinson's disease (PD) model. Description: Rotarod test in rats with 6-OHDA lesion, Parkinson's disease (PD) model. Conditions: for Side effects (dyskinesia at peak dose, end-of-dose deterioration of function etc.): L-DOPA orally. It counts as in vivo, Sprague-Dawley rats.
The conditions of data set [2]: human, pH 7.4.
Data set [3] concerns motor function deficits induced by 6-OHDA in Parkinson's disease (PD) model. Kind of data set: Rotarod test in rats with 6-OHDA lesion, Parkinson's disease (PD) model. It counts as in vivo, Sprague-Dawley rats. The settings on record: Example 31; for Side effects (dyskinesia at peak dose, end-of-dose deterioration of function etc.): L-DOPA orally, pro-drug transdermally. On the procedure:
Test subjects (Sprague-Dawley rats) were prepared, grouped, and tested following the protocol below: • 1. 200 Sprague-Dawley rats (male, 200-230 g) underwent brain stereotaxic surgery after 1 week acclamation in animal facility; • 2. After anesthesia, a bur hole (1 mm in diameter) was made on skull on the left side with a motor drill based on the coordinates: AP +0.5 mm, ML −2.8 mm, DV 6.0 mm relative to Bregma; • 3. 6-OHDA (20 μg at 5 mg/mL) or sterile saline was injected into the left striatum with a microsyringe fitted with a 26-gauge steel cannula. The chemical caused the retrograde neurodegeneration in the distal substantia nigra and impairs dopamine transmission in the nigro-striatal pathway, which eventually led to functional disturbance of motor activities; • 4. Apomorphine and classic rotation test was carried out to screen animals at the end of week 3 post 6-OHDA treatment. Animals that matched lesion type and apomorphine-induced rotational scores were allotted to 11 groups; and • 5. Rats were divided into 11 groups (n=12), each group was applied with the drug(s) at the doses specified in Table 2:
• 6. Dose Formulations • (1) L-DOPA in water (3 mg/mL) was the positive control solution for group 1 (orally for group 1, transdermally for groups 2-11). The volume of administration was 2 mL/kg. Vehicle solution (negative control solution for group 2) was 30% ethanol (v/v). The volume of administration was 1286 μL/kg. Other test solutions (groups 3-11) were freshly prepared every day. • (2) Preparation method of test solutions for groups 3-5: 50.33 mg of Drug A was dissolved in 10 mL of 30% ethanol(v/v). This solution was the stock solution[(2)a]. • a. The test solution for group 5 (high dose group) of Drug A: The stock solution [(2)a] was the test solution for Group 5. The volume of administration was 1286 μL/kg. • b. The test solution for group 4 (moderate dose group) of Drug A: 3.00 mL of the stock solution [(2)a] was diluted to final volume 9.00 mL with 30% ethanol(v/v). This solution was the test solution for Group 4. The volume of administration was 1286 μL/kg. • c. […]
(The rotarod test checks motor coordination on a turning rod.)

Read-outs that look alike come from different tables or passages of the source.

Consider `NC(Cc1ccc(O)c(O)c1)C(=O)O` (centres unmarked) [Compound-31, 2-amino-3-(3,4-dihydroxyphenyl)propanoic acid], for which the “Efficacy in Rotarod test comparing to Vehicle group” value in data set [1] (Example 31, 6 mg/kg orally (Group 1), three-week treatment) was “did not exhibit efficacy”; in data set [1] (Example 35, 6 mg/kg orally, four-week treatment), “did not exhibit efficacy”; in data set [1] (Example 36, 6 mg/kg orally, four-week treatment), “did not exhibit efficacy”. For the same molecule, in data set [1] (Example 33, 6 mg/kg orally, four-week treatment), the “Efficacy in Rotarod test comparing to the negative control group” value is on record as “did not exhibit efficacy”. In addition, the “Side effects (dyskinesia at peak dose, end-of-dose deterioration of function etc.)” value in data set [1] (Example 33, pro-drug transdermally) was “caused nausea, vomiting, gastrointestinal bleeding, dyskinesia at peak dose, and end-of-dose deterioration of function”; in data set [1] (Example 35, pro-drug of dopamine transdermally), “caused nausea, vomiting, gastrointestinal bleeding, dyskinesia at peak dose, and end-of-dose deterioration of function”; in data set [1] (Example 36, pro-drug transdermally), “caused nausea, vomiting, gastrointestinal bleeding, dyskinesia at peak dose, and end-of-dose deterioration of function”; in data set [3], “caused nausea, vomiting, gastrointestinal bleeding, dyskinesia at peak dose, and end-of-dose deterioration of function”. The “The cumulative amount of test compounds” value is reported as 0.001 mg in data set [2] (1 h), 0.001 mg in data set [2] (2 h), 0.002 mg in data set [2] (4 h) and 0.003 mg in data set [2] (8 h).

On to `CC(C)OC(=O)[C@@H](N)Cc1ccc(OC(=O)c2ccccc2)c(OC(=O)c2ccccc2)c1.Cl` [Compound-11, (S)-4-(2-amino-3-isopropoxy-3-oxopropyl)-1,2-phenylene dibenzoate hydrochloride], for which the “Efficacy of low dose compared with moderate and high dose groups” value in data set [1] (Example 31, 0.67 mg/kg transdermal (group 3) vs 2 mg and 6 mg/kg (groups 4 and 5)) was “much higher than that of the moderate and high dose groups”. Also, the “The cumulative amount of test compounds” value in data set [2] (1 h) is listed as 0.58 mg; in data set [2] (2 h), 1.15 mg; in data set [2] (4 h) it was 2.33 mg; in data set [2] (8 h), 4.71 mg. Besides, in data set [3], the “Side effects (dyskinesia at peak dose, end-of-dose deterioration of function etc.)” value was “avoided dyskinesia at peak dose, and end-of-dose deterioration of function”.

`CCN(CC)CCOC(=O)c1ccccc1OC(C)=O.Cl` [Compound-29, 2-(diethylamino)ethyl 2-acetoxybenzoate hydrochloride]: the “The cumulative amount of test compounds” value in data set [2] (1 h) turned out to be 1.08 mg; in data set [2] (2 h), 2.13 mg; in data set [2] (4 h), 4.27 mg; in data set [2] (8 h), 8.48 mg. The “Efficacy in Rotarod test comparing to vehicle group and positive control group” value in data set [3] (30 mg and 90 mg/kg transdermal, three-week treatment) is recorded as “good efficacy”.
